Experimental findings from ChEMBL document CHEMBL4393669, “D2 Dopamine Receptor G Protein-Biased Partial Agonists Based on Cariprazine” (J Med Chem, 2019) are described below.

The target of test [1] is D(2) dopamine receptor (Homo sapiens) (UniProt P14416).
The species entered for another test is Mus musculus. The note with it: C57.

Active and inactive are the calls of the source. The rule behind the calls is not given here.

D(2) dopamine receptor (Homo sapiens), sequence (P14416 whole entry): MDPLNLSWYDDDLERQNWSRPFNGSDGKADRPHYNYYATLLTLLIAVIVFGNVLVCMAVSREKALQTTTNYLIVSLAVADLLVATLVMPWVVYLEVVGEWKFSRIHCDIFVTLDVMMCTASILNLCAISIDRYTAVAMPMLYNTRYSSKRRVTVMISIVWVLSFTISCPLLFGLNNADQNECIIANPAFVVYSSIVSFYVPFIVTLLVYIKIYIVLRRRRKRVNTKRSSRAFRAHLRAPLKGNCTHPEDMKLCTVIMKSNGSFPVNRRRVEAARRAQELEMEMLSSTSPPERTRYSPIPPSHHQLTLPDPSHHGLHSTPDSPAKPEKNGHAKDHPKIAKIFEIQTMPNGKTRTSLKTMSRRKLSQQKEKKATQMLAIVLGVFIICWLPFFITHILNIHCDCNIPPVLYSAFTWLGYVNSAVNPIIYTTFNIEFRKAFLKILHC

Turning to `CN(C)C(=O)NCCCCCN1CCc2ccccc2C1`, the pEC50 result in test [1] was “inactive”.
Consider `CN(C)C(=O)N[C@H]1CC[C@H](CN2CCc3ccccc3C2)CC1`, for which the pEC50 entry in test [1] was “inactive”.
`CN(C)C(=O)N[C@H]1CC[C@H](CCN2CCc3cccc(Cl)c3C2)CC1`: in the test listed under Mus musculus, the Occ entry is “Dose-dependent effect”.
Take `CN(C)C(=O)Nc1ccc(CCN2CCc3ccccc3C2)cc1`: the pEC50 result in test [1] was “inactive”.
